Laboratory results taken from US6342522B1, “Microbiocidal compositions” (priority 1998, dated 2002).
Where “and” joins values, the source holds several entries; their conditions need not be identical. Identical values can stand only once.

Columns and labels:
Test in all cases: MIC, two-fold serial dilutions in Malt Agar, synergism by Kull method
Assay type in all cases: cell-based
[1] = tested on: Coriolus versicolor
Protocol: (§1) Each test tube was inoculated to make about 5×10^5 fungi per mil. The lowest concentrations of each compound or mixtures to inhibit visible growth (turbidity) at 30° C. for the fungi for 7 days were taken as the minimum inhibitory concentration (MIC). The MIC were taken as end points of activity. End points for the mixtures of compound A (Guanadine component) and Compound B (second Component microbiocide) were then compared with the end points for the guanadine component A alone and compound B alone. Synergism was determined by a commonly used and accepted method described by Kull, F. C.; Eisman, P. C.; Sylwestrowicz, H. D. and Mayer, R. L. in Applied Microbiology 9:538-541 (1961) using the ratio determined by Qa/QA+Qb/QB==Synergy Index (SI) wherein:
(§2) QA=concentration of compound A in parts per million (ppm), acting alone, which produced an end point.
(§3) Qa=concentration of compound A in ppm, in the mixture which produced an end point.
(§4) QB=concentration of compound B in ppm, acting alone which produced an end point.
(§5) Qb=concentration of compound B in ppm, in the mixture which produced an end point.
(§6) When the sum of Qa/QA and Qb/QB is greater than one, antagonism is indicated.
(§7) The MIC values of each compound tested alone (QA or QB) are end-point activities except where the value is expressed as […]. In these cases, the end-point activity was not seen at the highest tested concentration. For purpose of calculation of the synergy index and for operational definition of MIC, the reported value could be an underestimate of the true MIC; thus the true synergy index could be even lower.

[2] = tested on: Penicillium sp.
Protocol: as §1, §2, §3, §4, §5, §6, §7

[3] = tested on: Alternaria sp
Protocol: as §1, §2, §3, §4, §5, §6, §7

[4] = tested on: Diplodia sp.; settings: 30° C., 7 days
Protocol: as §1, §2, §3, §4, §5, §6, §7

[5] = tested on: Ophiostoma sp.
Protocol: as §1, §2, §3, §4, §5, §6, §7

[6] = tested on: Tyromyces palustris; settings: 30° C., 7 days
Protocol: as §1, §2, §3, §4, §5, §6, §7

“3-iodo-2-propynylbutyl carbamate [Iodocarb]” was tested, and the “QB, end-point activity (MIC) of compound B acting alone” value (“QB, end-point activity (MIC)” below) ([1]; c versicolor, 30° C., 7 days) was 16 ppm and the “QB, end-point activity (MIC)” value ([2]; Penicillium sp, 30° C., 7 days) was 4 ppm.

In the case of `N=C(N)NCCCCCCCCNCCCCCCCCNC(=N)N` [Guazatine, 1,1-iminodi(octamethylene)diguanidine], the “QA, end-point activity (MIC) of compound A acting alone” value (from here on “QA, end-point activity (MIC)”) ([3]; Alternaria sp, 30° C., 7 days) is reported as 32 ppm, the “QA, end-point activity (MIC)” value ([1]; c versicolor, 30° C., 7 days) is reported as 32 ppm and 64 ppm and the “QA, end-point activity (MIC)” value [4] is reported as 64 ppm. For the same compound, the “QA, end-point activity (MIC)” value ([5]; Ophiosroma sp, 30° C., 7 days) was 1 ppm, the “QA, end-point activity (MIC)” value ([2]; Penicillium sp, 30° C., 7 days) was 128 ppm and the “QA, end-point activity (MIC)” value ([6]; T palustri) was 128 ppm.

Work on `CCCN(CCOc1c(Cl)cc(Cl)cc1Cl)C(=O)n1ccnc1` [Prochloraz, N-propyl-N-(2-(2,4,6-trichlorophenoxy)ethyl)-imidazole-1-carboximide] yielded an MIC ([3]; Alternaria, 168 h, read-out: QB, end-point activity (MIC) of compound B acting alone) of 4 µg/mL, an MIC ([1]; Trametes versicolor, 168 h, read-out: QB, end-point activity (MIC) of compound B acting alone) of 4 µg/mL and an MIC ([5]; 168 h, read-out: QB, end-point activity (MIC) of compound B acting alone) of 2 µg/mL. The MIC ([2]; Penicillium, 168 h, read-out: QB, end-point activity (MIC) of compound B acting alone) was 32 µg/mL, the MIC ([6]; 168 h, read-out: QB, end-point activity (MIC) of compound B acting alone, T palustri) was 64 µg/mL and the “QB, end-point activity (MIC)” value ([6]; T palustri) was 128 ppm.
